# Data reported in patent US8933130B2, “Treatment of vasomotor symptoms with selective estrogen receptor modulators” (Radius Health, Inc., priority 2006, dated 2015).
# What was measured:
# [1] = system: 19-day old Sprague-Dawley rats (uteri); conditions: rat, in vivo
# Procedure: (§1) 19-day old Sprague-Dawley rats were treated with either vehicle (95% corn oil/5% DMSO), estradiol (0.01 mg/kg), raloxifene (10 mg/kg), tamoxifen (1 mg/kg) or SERM A (100, 30, 10, 3, 1, or 0.3 mg/kg). The rats were dosed once daily by subcutaneous injection for three consecutive days. 24 hours after the last dose, the rats were euthanized, uteri were harvested and their wet weight recorded.
# [2] = system: morphine-addicted ovariectomized rats; assay: Rodent model of hot flashes: tail skin temperature change after naloxone in morphine-addicted ovariectomized rats; type: in vivo, rat; conditions: for Mean Tail Skin Temp.: tail skin temperature change after naloxone, ovariectomized rats, vehicle 5.6° C.
# Procedure: The SERM, (R)-6-{2-{Ethyl[4-(2-ethylaminoethyl)benzyl]amino}-4-methoxyphenyl}-5,6,7,8-tetrahydronaphthalen-2-ol (“SERM A”), was evaluated for its ability to modulate vasomotor activity in a rodent model of hot flashes. (Merchenthaler, Maturitas, 1998 30:307-316). Briefly, ovariectomized adult rats were implanted with slow release morphine sulfate pellets on days 5 and 6 post-ovariectomy. Beginning at 4 days post-ovariectomy, once-daily treatment was initiated with a positive control, ethynyl estradiol (0.3 mg/kg), SERM A (1 and 10 mg/kg) or vehicle (95% corn oil, 5% DMSO by volume), delivered by subcutaneous injection. Treatment with the test agents was continued daily until the end of the study. On day 10, probes capable of continuously monitoring temperature were applied to the tail skin surface of the treated rats. The rats were then treated with naloxone, a morphine antagonist, and the change in skin temperature recorded for a period of 60 minutes.
# [3] = system: 19-day old Sprague-Dawley rats (uteri); assay: Antagonism of estradiol-mediated uterine stimulation: uterine wet weight in 19-day old rats; type: in vivo, rat; conditions: SERM A 10, 3, 1, 0.3, 0.1, 0.03, 0.01 mg/kg combined with estradiol 0.01 mg/kg, s.c. once daily for three days; FIG. 3
# Procedure: as §1, with “mg/kg), or a combination of estradiol (0.01” for “mg/kg), raloxifene (10 mg/kg), tamoxifen (1”, “mg/kg) and” for “mg/kg) or”, “A (10,” for “A (100, 30, 10,”, “1, 0.3, 0.1, 0.03, 0.01” for “1, or 0.3”
Structure (SMILES),uterine stimulation at doses effective at modulating vasomotor response [1],"increase in skin temperature after naloxone treatment, compared to vehicle ([2]; 0.1 and 0.01 mg/kg)","increase in skin temperature after naloxone treatment, compared to vehicle ([2]; 1 or 10 mg/kg s.c. once daily)","elevation of tail skin temperature associated with morphine addiction withdrawal ([2]; morphine-addicted ovariectomized rats, FIG. 1)","activity on reducing tail skin temperature increase, compared with positive control ethynyl estradiol ([2]; statistical analysis, SERM A 1 and 10 mg/kg vs ethynyl estradiol 0.3 mg/kg)",Mean Tail Skin Temp. ([2]; 1 mg/kg once daily s.c.),Mean Tail Skin Temp. ([2]; 10 mg/kg once daily s.c.),estradiol-mediated increase in uterine weight [3],"increase in skin temperature after naloxone treatment, compared to vehicle ([2]; 0.3 mg/kg s.c. once daily)",Mean Tail Skin Temp. ([2]; 0.3 mg/kg once daily s.c.)
"CCNCCc1ccc(CN(CC)c2cc(OC)ccc2[C@@H]2CCc3cc(O)ccc3C2)cc1 [SERM A, (R)-6-{2-{Ethyl[4-(2-ethylaminoethyl)benzyl]amino}-4-methoxyphenyl}-5,6,7,8-tetrahydronaphthalen-2-ol]",lack of uterine stimulation,did not significantly reduce the increase in skin temperature,significantly reduced the increase in skin temperature,suppressing the elevation of tail skin temperature,no significant difference,2.1 °C,2.0 °C,decreased the estradiol-mediated increase in a dosage dependent manner,–,–
"C#C[C@]1(O)CC[C@H]2[C@@H]3CCc4cc(O)ccc4[C@H]3CC[C@@]21C [Ethynyl estradiol, ethynyl estradiol, reference compound]",–,–,–,–,–,–,–,–,significantly reduced the increase in skin temperature,1.2 °C
